Assay results from patent US8080523B2 (The Regents of the University of California, priority 2004, dated 2011).
Positions of bridges follow the written chain, without caps; N, C: chain ends. Residues, ends and D or L forms follow the SMILES beside them.

Columns and labels:
Format in all cases: cell-based
[1] = molecular target: T1, Kv1.1 (Mus musculus, UniProt P16388); test: Patch-clamp block of Kv1.1 channels stably expressed in L929 cells
T1 construct: expressed in transfected cells
Procedure: (§1) Kds were determined from the dose-response curves shown using Microcal Origin software.

[2] = system: Kv1.2; test: Ion channel specificity panel: Kv1.2
Description: (§2) Margatoxin, a peptide from scorpion venom that has been touted as a specific Kv1.3 inhibitor (Koo et al., 1997; Lin et al., 1993; Middleton et al., 2003) was also not specific.

[3] = molecular target: Kv1.5 (Homo sapiens, UniProt P22460); test: Ion channel specificity panel: Kv1.5
Description: as §2

[4] = molecular target: T2, Kv1.3 (Mus musculus, UniProt P16390); test: Patch-clamp block of Kv1.3 channels stably expressed in L929 cells; conditions: cloned channel, dose-response curves
T2 construct: expressed in transfected cells
Procedure: as §1

[5] = molecular target: Kv1.2 (UniProt P63142); test: Ion channel specificity panel: Kv1.2; conditions: read-out: Kd on Kv1.2
Description: as §2

[6] = molecular target: Kv1.6 (Homo sapiens, UniProt P17658); test: Ion channel specificity panel: Kv1.6
Description: as §2

[7] = molecular target: Kv3.2; test: Ion channel specificity panel: Kv3.2
Description: as §2

T1 sequence (P16388 whole entry): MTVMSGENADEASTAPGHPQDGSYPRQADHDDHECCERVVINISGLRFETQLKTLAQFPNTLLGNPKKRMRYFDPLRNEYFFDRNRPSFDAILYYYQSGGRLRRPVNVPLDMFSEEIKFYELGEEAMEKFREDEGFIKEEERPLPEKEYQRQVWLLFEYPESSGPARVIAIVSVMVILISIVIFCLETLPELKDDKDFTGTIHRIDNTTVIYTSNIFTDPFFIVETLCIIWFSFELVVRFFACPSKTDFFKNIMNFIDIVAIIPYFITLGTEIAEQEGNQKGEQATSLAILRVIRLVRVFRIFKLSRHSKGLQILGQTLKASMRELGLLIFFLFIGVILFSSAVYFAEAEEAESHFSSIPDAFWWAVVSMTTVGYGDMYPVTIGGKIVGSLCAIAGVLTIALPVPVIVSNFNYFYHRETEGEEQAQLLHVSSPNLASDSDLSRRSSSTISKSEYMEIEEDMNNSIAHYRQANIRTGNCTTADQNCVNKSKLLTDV
Chain of Kv1.6 (P17658 whole entry): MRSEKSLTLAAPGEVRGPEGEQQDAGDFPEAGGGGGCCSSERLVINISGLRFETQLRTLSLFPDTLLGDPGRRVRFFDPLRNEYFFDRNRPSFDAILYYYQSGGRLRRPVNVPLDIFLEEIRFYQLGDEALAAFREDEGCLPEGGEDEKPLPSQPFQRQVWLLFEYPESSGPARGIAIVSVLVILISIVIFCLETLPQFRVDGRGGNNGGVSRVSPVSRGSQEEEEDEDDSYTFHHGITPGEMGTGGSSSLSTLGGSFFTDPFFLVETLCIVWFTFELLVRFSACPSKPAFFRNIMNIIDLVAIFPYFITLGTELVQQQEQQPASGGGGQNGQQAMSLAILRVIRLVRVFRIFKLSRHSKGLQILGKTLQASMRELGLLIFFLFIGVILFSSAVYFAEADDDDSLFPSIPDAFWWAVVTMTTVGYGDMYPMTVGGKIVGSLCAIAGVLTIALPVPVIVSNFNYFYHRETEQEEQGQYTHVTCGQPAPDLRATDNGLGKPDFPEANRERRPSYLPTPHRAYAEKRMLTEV
Chain of Kv1.5 (P22460 whole entry): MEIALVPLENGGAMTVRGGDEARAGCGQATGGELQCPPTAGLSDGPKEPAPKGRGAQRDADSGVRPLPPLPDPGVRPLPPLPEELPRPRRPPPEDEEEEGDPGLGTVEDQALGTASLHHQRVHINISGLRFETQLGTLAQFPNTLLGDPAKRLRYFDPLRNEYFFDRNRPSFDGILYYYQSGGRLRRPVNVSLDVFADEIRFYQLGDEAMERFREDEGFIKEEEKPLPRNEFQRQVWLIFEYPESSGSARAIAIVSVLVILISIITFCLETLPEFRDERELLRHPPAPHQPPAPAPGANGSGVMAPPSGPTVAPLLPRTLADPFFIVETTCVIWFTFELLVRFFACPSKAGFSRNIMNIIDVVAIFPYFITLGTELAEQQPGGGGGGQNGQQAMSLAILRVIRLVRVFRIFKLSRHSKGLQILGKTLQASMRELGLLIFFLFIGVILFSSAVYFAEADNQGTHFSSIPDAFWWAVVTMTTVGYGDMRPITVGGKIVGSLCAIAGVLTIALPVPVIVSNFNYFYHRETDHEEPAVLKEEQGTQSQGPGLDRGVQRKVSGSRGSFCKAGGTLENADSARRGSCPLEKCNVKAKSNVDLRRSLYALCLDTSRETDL
T2 sequence (P16390 whole entry): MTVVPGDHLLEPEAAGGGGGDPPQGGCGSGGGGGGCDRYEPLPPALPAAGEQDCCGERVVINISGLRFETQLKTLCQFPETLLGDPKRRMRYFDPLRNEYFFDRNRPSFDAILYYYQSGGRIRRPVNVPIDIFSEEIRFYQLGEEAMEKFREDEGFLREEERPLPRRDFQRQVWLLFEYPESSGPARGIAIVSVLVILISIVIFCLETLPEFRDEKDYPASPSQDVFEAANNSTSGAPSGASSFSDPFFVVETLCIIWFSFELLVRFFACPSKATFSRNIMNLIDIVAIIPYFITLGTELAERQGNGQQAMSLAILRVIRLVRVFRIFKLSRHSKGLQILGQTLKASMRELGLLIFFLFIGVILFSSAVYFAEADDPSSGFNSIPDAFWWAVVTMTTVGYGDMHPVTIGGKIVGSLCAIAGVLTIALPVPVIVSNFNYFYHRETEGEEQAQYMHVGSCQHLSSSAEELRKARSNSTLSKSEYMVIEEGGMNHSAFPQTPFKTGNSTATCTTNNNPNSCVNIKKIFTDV

O=c1cc(-c2ccc(O)c(O)c2)oc2cc(O)cc(O)c12 [Luteolin]
selectivity for Kv1.3 over Kv1.1 [1]: no selectivity | selectivity for Kv1.3 over Kv1.2 [2]: no selectivity | selectivity for Kv1.3 over Kv1.5 [3]: no selectivity

CC[C@H](C)[C@H](NC(=O)[C@@H](N)[C@@H](C)O)C(=O)N[C@H](C(=O)N[C@@H](CC(N)=O)C(=O)N[C@H](C(=O)N[C@@H](CCCCN)C(=O)N[C@H]1CSSC[C@@H]2NC(=O)[C@H](CCCCN)NC(=O)[C@H](C)NC(=O)CNC(=O)[C@H](C)NC(=O)[C@H](CO)NC(=O)[C@H](CCC(N)=O)NC(=O)CNC(=O)[C@H](Cc3ccccc3)NC(=O)[C@H](CCC(N)=O)NC(=O)[C@H](C)NC(=O)[C@H](CCCCN)NC(=O)[C@@H]3CSSC[C@@H](C(=O)N[C@@H](Cc4ccc(O)cc4)C(=O)N4CCC[C@H]4C(=O)N[C@@H](Cc4c[nH]cn4)C(=O)O)NC(=O)[C@H](CCCCN)NC(=O)[C@H](CSSC[C@H](NC(=O)[C@H](CCC(N)=O)NC(=O)[C@H](CCCCN)NC(=O)[C@@H]4CCCN4C(=O)[C@H](CO)NC(=O)[C@H]([C@@H](C)O)NC1=O)C(=O)N[C@@H](CC(C)C)C(=O)N1CCC[C@H]1C(=O)N1CCC[C@H]1C(=O)N3)NC(=O)[C@H](CCCCN)NC(=O)CNC(=O)[C@H](CC(N)=O)NC(=O)[C@H](CCSC)NC2=O)C(C)C)[C@@H](C)CC [Margatoxin] (H-TIINVKCTSPKQCLPPCKAQFGQSAGAKCMNGKCKCYPH-OH; disulfide 7-29, 13-34, 17-36; N-terminus and C-terminus assumed)
Kd [4]: 0.11 ± 0.012 nM | Kd [1]: 10 ± 1 nM | selectivity for Kv1.3 over Kv1.1 [1]: 9 fold | Kd [5]: 0.52 ± 0.001 nM | selectivity for Kv1.3 over Kv1.2 [2]: 5 fold | Kd [6]: > 100 nM | selectivity for Kv1.3 over Kv1.6 [6]: > 1000 fold | Kd [7]: > 100 nM | selectivity for Kv1.3 over Kv3.2 [7]: > 1000 fold
